Source: ChEMBL document CHEMBL1201862, “PubChem BioAssay data set” (2004)
Active and inactive are the calls of the source.

Experiments:
cells = format: functional, cell-based; details: HEK-CNG
Galanin receptor type 3 = Galanin receptor type 3 (Homo sapiens, UniProt O60755); experiment: Fluorescence-based cell-based primary high throughput dose response assay to identify antagonists of the Galanin Receptor 3 (GalR3).; format: functional
[1] = loss of viability in HepG2 cells – cell-based, CellTiter-Glo, cherry-picked, cytotoxicity control for Shn3 inhibitor project, dose response (AID 624134); format: functional
[2] = non-specific 3'UTR reporter inhibition in Clone20-Shn3RL – cell-based, Renilla luciferase, cherry-picked, counter-screen for Shn3 inhibitor project, dose response (AID 624133); format: functional
Bcl-2-related protein A1 = target: T1, Bcl-2-related protein A1 (Mus musculus, UniProt Q07440); format: functional;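 further: confirmatory dose–response counterscreen on Bfl-1, used to check hits from a UBC13 polyubiquitin inhibitor campaign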
T1 sequence (Q07440 whole entry): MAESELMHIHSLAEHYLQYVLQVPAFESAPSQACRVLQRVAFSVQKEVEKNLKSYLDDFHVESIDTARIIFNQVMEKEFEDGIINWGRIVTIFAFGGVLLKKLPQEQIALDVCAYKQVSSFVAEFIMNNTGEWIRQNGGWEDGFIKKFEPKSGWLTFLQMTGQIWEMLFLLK

CHO = CHO cell viability loss, potency – luminescence, cytotoxicity control for TLR9-MyD88 binding inhibitor project, dose response (AID 588339); format: functional, cell-based, hamster; details: Cricetulus griseus;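 further: CHO cells stably coexpressing TLR9 and MyD88 fusions from primary screen; compound exposure lasted 48 hours before viability readout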
[3] = target: T2, Replicative DNA helicase DnaB (Mycobacterium tuberculosis, UniProt P9WMR3); experiment: DnaB intein splicing inhibitors, dose response, biochemical, cell-free fluorescence (AID 449749); format: functional
T2 sequence (P9WMR3 whole entry): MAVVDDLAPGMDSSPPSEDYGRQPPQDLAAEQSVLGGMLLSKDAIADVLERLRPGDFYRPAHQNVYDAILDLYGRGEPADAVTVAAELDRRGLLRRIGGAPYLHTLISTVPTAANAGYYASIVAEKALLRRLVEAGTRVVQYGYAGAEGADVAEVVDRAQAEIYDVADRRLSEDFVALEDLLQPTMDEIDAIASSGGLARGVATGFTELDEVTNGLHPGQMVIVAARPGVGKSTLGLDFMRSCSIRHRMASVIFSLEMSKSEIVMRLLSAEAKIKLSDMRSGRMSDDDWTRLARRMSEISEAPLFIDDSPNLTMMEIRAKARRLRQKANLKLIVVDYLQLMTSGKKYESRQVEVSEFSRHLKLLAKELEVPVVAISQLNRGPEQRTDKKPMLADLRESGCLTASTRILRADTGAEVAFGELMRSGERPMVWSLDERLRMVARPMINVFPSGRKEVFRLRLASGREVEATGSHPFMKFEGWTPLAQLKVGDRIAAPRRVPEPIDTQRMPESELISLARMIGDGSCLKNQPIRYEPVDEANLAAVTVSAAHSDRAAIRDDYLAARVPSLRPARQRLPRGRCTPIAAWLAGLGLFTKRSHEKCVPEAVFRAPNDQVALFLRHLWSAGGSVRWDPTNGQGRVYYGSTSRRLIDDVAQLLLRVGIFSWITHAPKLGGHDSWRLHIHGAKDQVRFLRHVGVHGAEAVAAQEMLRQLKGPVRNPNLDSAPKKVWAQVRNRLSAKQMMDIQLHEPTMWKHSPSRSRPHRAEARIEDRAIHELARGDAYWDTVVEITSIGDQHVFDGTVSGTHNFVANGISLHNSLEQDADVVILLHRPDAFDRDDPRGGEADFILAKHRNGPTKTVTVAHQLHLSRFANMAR

[4] = target: ATP-binding cassette sub-family B member 6 (Homo sapiens, UniProt Q9NP58); experiment: ABCB6 transporter inhibitors, porphyrin accumulation, dose response, flow cytometry, K562-ABCB6 cells, cherry pick 02 (AID 624487); format: functional; details: read-out: EC50_MICROM
[5] = Luminescence Cell-Based Dose Retest to Confirm Inhibitors of Cancer Stem Cells. [Related pubchem assays (depositor defined):AID2717, AID2721]; format: functional; details: Homo sapiens
Protein RecA = target: T3, Protein RecA (Mycobacterium tuberculosis, UniProt P9WHJ3); experiment: Fluorescence Cell-Free Homogeneous Dose Retest to Identify Inhibitors of RecA-Intein Splicing Activity. [Related pubchem assays (depositor defined):AID2097, AID2223, AID489010, AID492950]; format: functional
T3 sequence (P9WHJ3 whole entry): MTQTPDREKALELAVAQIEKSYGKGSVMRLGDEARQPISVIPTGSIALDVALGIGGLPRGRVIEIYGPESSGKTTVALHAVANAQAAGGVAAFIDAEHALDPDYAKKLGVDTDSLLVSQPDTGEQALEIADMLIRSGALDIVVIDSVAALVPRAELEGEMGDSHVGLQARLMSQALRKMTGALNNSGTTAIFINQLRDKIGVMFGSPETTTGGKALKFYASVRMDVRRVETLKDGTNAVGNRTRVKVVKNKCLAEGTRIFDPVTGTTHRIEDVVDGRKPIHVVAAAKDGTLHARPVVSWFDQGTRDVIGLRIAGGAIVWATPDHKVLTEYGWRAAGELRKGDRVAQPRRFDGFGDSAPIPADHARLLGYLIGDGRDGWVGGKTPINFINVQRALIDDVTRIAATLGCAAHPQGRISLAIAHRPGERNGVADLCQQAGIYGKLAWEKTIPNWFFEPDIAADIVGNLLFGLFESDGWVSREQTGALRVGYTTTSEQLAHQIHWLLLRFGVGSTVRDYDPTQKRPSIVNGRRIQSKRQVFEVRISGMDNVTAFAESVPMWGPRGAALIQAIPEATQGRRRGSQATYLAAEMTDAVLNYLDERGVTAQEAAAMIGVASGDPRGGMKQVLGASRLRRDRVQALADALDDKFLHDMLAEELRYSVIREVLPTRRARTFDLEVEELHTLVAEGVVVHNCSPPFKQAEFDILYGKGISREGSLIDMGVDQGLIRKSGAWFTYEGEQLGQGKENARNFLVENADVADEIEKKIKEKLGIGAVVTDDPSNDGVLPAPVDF

[6] = target: T4, Ubiquitin-conjugating enzyme E2 N (Homo sapiens, UniProt P61088); format: functional
T4 sequence (P61088 whole entry): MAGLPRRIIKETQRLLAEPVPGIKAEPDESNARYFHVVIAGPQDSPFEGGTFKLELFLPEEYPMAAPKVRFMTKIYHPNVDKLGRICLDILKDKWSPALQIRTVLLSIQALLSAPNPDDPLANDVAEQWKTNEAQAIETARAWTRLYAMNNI

[7] = target: T4, Ubiquitin-conjugating enzyme E2 N; format: functional; remark: listed apart in the source
Beta Lactamase [8] = target: T5, Beta Lactamase (Pseudomonas aeruginosa, UniProt Q932Y6); experiment: BLA reporter interference, concentration series – BLA reporter cells, FRET fluorescence, artefact control for TLR9-MyD88 binding inhibitor project, dose response (AID 588341); format: cell-based;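 further: cell based assay in CHO-K1 cells stably expressing beta-lactamase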
[9] = reduction of Shn3 3'UTR-driven luciferase in osteoblasts – cell-based, Clone20 osteoblasts, firefly luciferase, cherry-picked, dose response (AID 624132); format: functional;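 further: firefly luciferase luminescence from reporter carrying the Shn3 3'UTR in osteoblasts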
A549 = experiment: viability loss in A549 cells – cell-based, plate reader, cherry-pick samples, cytotoxicity control, dose response (AID 687028); format: functional; details: Homo sapiens
Steroidogenic factor 1 = Steroidogenic factor 1 (Homo sapiens, UniProt Q13285); experiment: Counterscreen for inverse agonists of the liver receptor homolog-1 (LRH-1; NR5A2): Luminescence-based cell-based high throughput dose response assay to identify inverse agonists of the Steroidogenic Factor 1 Nuclear Receptor (SF1; NR5A1).; format: functional
[10] = nonselective StAR promoter luciferase inhibitors – cell-based, luminescence, luciferase reporter, counter-screen for LRH-1 inverse agonist project, dose response (AID 651969); format: functional
[11] = target: Nuclear receptor subfamily 5 group A member 2 (Homo sapiens, UniProt O00482); format: functional, cell-based;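 further: HEK293T cells transfected with LRH-1 and a StAR promoter luciferase reporter; potency for inhibitors that lower LRH-1 driven reporter light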
Albumin = Albumin (Bos taurus, UniProt P02769); experiment: Counterscreen for inhibitors of T-cell receptor (TCR)-CD3 interaction: Fluorescence-based biochemical high throughput dose response assay to identify inhibitors of T-cell receptor (TCR)-CD3 interaction using a TAMRA-labeled BSA probe.; format: functional
Beta-lactamase [12] = target: T6, Beta-lactamase (Pseudomonas aeruginosa, UniProt Q79MP6); experiment: […] counterscreen for selective VIM-2 inhibitors: dose response biochemical high throughput screening assay to identify inhibitors of IMP-1 metallo-beta-lactamase.
Beta-lactamase [13] = target: Beta-lactamase (Salmonella choleraesuis (strain SC-B67), UniProt Q5J463); experiment: Epi-absorbance-based counterscreen for selective VIM-2 inhibitors: dose response biochemical high throughput screening assay to identify inhibitors of TEM-1 serine-beta-lactamase.
Beta Lactamase [14] = target: T5, Beta Lactamase; experiment: VIM-2 CCF2 hydrolysis inhibition, assay artifact filter – biochemical, FRET readout, CCF2 substrate, artefact control for selective VIM-2 inhibitor project, dose response (AID 1926)
Beta Lactamase [15] = target: T5, Beta Lactamase; experiment: concentration-dependent VIM-2 enzyme inhibition – biochemical, epi-absorbance readout, selective inhibitors, dose response (AID 1919)
Beta-lactamase [16] = target: T6, Beta-lactamase; experiment: inhibition of IMP-1 beta-lactamase activity – biochemical, epi-absorbance, selectivity assay for VIM-2 inhibitor project, dose response (AID 1920)
[17] = reduced cellular PGC1a acetyl-lysine signal – cell-based, cherry-picked samples, dose response (AID 720514); format: functional;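 further: potency may reflect raised or lowered acetylation signal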
[18] = target: SWI/SNF-related matrix-associated actin-dependent regulator of chromatin subfamily A member 2 (Homo sapiens, UniProt P51531); experiment: Luminescence-based cell-based high throughput dose response assay to identify activators of the function of SWI/SNF related, matrix associated, actin dependent regulator of chromatin, subfamily a, member 2 (SMARCA2, BRM).; format: functional
[19] = Counterscreen for activators of the function of SWI/SNF related, matrix associated, actin dependent regulator of chromatin, subfamily a, member 2 (SMARCA2, BRM): Luminescence-based cell-based high throughput dose response assay to identify non-selective compounds using the VP16 reporter assay.; format: functional
[20] = target: T7, Probable nicotinate-nucleotide adenylyltransferase (Staphylococcus aureus (strain N315), UniProt P65502); format: functional, Staphylococcus aureus subsp. aureus N315; details: read-out: IC50_Mean;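 on IC50 Mean: confirmatory dose-response retesting of NadD inhibitor hits first found in an ultra-high-throughput screen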
[21] = NIH3T3 cell viability loss – ATP luminescence, mouse fibroblasts, counter-screen, dose response (AID 2010); format: functional, cell-based;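 further: cells exposed to compound for about 90 hours before reading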
[22] = target: T7, Probable nicotinate-nucleotide adenylyltransferase; format: functional, Staphylococcus aureus subsp. aureus N315
[23] = Trypanosoma cruzi growth suppression in host cells – NIH3T3 host cells, beta-gal luminescence, confirmation (AID 2044); format: functional, cell-based;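 further: intracellular parasites grown in NIH/3T3 mouse fibroblasts as host cells; luminescent beta-galactosidase reporter signal from transgenic T. cruzi replicating inside host cells; inhibitors lower the luminescence signal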
[24] = mouse fibroblast viability loss – cell-based, cherry-pick samples, set 2, cytotoxicity control for T. cruzi growth inhibitor project, dose response (AID 651817); format: functional; details: NIH3T3
[25] = target: T8, Low molecular weight phosphotyrosine protein phosphatase (Homo sapiens, UniProt P24666); format: functional; details: read-out: IC50_Mean
T8 sequence (P24666 whole entry): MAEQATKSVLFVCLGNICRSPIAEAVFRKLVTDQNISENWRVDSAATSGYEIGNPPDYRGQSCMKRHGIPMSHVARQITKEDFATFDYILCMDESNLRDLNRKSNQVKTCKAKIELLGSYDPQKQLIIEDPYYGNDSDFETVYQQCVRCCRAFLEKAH

[26] = target: T8, Low molecular weight phosphotyrosine protein phosphatase; format: functional; details: read-out: IC50_Mean; remark: listed apart in the source

T5 sequence (Q932Y6 whole entry): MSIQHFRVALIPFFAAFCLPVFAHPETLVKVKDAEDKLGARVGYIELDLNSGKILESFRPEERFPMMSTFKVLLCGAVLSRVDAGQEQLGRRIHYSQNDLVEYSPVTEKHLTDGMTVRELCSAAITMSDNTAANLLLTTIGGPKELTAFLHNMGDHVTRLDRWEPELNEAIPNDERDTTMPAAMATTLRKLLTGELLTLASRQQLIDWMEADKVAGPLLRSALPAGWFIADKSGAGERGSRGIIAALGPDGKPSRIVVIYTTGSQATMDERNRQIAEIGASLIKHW
T7 sequence (P65502 whole entry): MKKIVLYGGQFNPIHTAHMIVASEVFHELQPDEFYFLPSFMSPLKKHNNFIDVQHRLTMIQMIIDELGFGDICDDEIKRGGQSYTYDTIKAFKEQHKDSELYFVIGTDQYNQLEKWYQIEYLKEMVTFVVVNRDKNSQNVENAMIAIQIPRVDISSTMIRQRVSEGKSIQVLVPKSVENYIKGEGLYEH
T6 sequence (Q79MP6 whole entry): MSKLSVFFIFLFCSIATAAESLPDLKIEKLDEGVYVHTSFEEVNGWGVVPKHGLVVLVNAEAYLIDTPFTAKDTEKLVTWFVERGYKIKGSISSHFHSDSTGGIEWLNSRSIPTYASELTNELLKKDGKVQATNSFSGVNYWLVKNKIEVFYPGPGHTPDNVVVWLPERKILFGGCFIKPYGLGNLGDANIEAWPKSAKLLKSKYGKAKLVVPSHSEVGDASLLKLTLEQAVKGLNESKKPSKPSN
Albumin, sequence (P02769 whole entry): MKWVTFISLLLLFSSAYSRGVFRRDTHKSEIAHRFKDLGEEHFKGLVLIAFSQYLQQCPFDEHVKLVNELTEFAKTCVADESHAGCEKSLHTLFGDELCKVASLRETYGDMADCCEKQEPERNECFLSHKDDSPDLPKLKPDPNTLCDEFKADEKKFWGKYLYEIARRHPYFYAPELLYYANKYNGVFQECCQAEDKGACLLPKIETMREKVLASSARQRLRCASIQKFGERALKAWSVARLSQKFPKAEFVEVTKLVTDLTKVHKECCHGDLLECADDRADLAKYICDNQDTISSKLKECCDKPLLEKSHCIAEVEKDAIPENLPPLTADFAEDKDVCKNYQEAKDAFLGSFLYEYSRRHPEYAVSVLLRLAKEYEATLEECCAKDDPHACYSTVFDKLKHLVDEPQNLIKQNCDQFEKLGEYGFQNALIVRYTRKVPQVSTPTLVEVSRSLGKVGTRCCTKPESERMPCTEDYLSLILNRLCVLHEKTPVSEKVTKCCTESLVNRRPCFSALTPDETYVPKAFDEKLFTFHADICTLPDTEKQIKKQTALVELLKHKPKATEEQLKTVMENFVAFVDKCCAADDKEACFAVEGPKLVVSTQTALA
Galanin receptor type 3, sequence (O60755 whole entry): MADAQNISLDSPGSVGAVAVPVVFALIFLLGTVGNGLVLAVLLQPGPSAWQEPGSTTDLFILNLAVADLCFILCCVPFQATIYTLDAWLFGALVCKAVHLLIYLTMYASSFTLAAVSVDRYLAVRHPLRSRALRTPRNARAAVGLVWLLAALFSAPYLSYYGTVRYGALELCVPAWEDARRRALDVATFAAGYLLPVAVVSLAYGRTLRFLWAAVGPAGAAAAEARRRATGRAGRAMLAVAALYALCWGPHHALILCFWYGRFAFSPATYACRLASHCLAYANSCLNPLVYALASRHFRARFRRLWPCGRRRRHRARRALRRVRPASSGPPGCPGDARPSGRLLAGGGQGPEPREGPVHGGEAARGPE
ATP-binding cassette sub-family B member 6, sequence (Q9NP58 whole entry): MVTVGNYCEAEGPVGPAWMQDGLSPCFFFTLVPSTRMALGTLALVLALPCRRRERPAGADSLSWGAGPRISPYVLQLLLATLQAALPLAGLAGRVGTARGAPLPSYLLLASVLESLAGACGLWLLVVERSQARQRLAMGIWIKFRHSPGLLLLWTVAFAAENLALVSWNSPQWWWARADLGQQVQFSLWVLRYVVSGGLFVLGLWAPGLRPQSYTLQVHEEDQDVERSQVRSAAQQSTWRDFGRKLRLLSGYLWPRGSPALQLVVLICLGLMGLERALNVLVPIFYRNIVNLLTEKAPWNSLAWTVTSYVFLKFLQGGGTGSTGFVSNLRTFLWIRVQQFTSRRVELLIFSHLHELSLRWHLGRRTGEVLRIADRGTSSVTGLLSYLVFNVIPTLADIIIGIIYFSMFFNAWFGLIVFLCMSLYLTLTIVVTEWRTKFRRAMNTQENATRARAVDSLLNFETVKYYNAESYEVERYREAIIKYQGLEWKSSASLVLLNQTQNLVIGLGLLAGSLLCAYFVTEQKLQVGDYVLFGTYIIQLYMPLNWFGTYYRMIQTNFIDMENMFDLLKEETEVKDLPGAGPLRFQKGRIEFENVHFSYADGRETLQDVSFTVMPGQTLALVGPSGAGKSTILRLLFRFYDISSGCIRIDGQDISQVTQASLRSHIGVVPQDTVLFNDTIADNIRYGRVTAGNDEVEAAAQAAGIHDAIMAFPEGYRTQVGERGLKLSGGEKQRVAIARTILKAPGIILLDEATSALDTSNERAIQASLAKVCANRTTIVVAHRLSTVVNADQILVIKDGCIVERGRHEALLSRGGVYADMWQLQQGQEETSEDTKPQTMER
Beta-lactamase (Salmonella choleraesuis (strain SC-B67), UniProt Q5J463), sequence (Q5J463 whole entry): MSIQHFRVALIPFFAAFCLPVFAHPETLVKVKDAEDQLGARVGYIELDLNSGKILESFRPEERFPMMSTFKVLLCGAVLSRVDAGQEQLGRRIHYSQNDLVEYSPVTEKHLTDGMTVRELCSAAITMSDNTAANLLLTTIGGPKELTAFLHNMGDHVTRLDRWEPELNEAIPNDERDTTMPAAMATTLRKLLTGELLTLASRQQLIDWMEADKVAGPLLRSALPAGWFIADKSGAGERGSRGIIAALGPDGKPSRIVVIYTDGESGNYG
Nuclear receptor subfamily 5 group A member 2, sequence (O00482 whole entry): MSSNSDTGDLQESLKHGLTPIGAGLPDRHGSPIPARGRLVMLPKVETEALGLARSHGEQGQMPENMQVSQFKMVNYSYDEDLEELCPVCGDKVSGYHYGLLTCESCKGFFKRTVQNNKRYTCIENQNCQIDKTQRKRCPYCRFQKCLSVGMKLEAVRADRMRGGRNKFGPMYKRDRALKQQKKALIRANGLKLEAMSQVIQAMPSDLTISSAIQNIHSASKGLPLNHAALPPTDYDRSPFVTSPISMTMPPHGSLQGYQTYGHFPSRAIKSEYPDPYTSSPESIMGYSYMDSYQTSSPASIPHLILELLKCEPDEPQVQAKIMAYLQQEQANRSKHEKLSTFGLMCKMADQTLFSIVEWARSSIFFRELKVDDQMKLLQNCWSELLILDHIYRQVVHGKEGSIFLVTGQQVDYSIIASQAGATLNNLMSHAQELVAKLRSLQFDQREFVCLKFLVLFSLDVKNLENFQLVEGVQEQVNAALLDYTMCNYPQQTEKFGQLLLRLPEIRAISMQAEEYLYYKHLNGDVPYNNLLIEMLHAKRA
Steroidogenic factor 1, sequence (Q13285 whole entry): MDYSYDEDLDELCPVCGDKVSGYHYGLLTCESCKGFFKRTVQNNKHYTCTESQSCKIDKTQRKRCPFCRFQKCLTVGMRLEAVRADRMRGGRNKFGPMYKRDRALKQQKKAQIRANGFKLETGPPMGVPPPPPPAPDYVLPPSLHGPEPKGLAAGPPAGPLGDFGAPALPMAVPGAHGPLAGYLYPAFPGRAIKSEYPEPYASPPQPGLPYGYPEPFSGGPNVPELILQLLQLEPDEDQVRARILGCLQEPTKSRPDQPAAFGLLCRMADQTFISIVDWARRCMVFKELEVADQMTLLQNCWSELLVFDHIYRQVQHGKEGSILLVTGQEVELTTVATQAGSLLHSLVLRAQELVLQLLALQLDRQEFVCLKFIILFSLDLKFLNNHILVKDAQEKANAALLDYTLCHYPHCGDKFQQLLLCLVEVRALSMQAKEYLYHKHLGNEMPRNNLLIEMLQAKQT

## CC(CC(=O)Nc1ccc(Cl)c(S(=O)(=O)N2CCOCC2)c1)c1ccccc1 (stereo unspecified)
cells
  EC50: > 29.9 µM (inactive)
Galanin receptor type 3
  IC50: 1.21 µM (active)

## CC(=O)Nc1ccc(NC(=O)c2nc(S(=O)(=O)Cc3cccc(C)c3)ncc2Cl)cc1
[1]
  AC50: 66.6 µM (active)
[2]
  AC50: 6.53 µM (active)
Bcl-2-related protein A1
  IC50: > 20 µM (inactive)
CHO
  IC50: 3.54 µM (active)
[3]
  AC50: 7.54 µM (active)
[4]
  EC50: 17.8 µM (active)
[5]
  AC50: 2.47 µM (active)
Protein RecA
  EC50: 5.24 µM (active)
[6]
  IC50: 13 µM (active)
[7]
  IC50: > 20 µM (inactive)
Beta Lactamase [8]
  IC50: 9.43 µM (active)
[9]
  AC50: 0.528 µM (active)

## C[C@@H]1CCCCO[C@@H](CN(C)C(=O)Cc2ccccc2)[C@H](C)CN([C@H](C)CO)C(=O)c2cc(NS(=O)(=O)c3ccc(Cl)cc3)ccc2O1
A549
  AC50: 31.2 µM (active)

## CC(=O)Nc1ccc(NC(=O)COC(=O)Cc2c[nH]c3ccccc23)cc1
Steroidogenic factor 1
  IC50: 2.07 µM (active)
[10]
  IC50: 35.9 µM (inactive)
[11]
  IC50: 2.64 µM (active)

## CCc1ccc(NC(=O)NNC(=O)c2ccc3ccccc3c2O)cc1
Albumin
  IC50: > 94.1 µM (inactive)

## O=C(C1=C(O)C(=O)N(Cc2cccnc2)C1c1ccccn1)c1ccc(F)cc1 (stereo unspecified)
Beta-lactamase [12]
  IC50: > 59.6 µM (inactive)
Beta-lactamase [13]
  IC50: > 59.6 µM (inactive)
Beta Lactamase [14]
  IC50: 0.941 µM (active)
Beta Lactamase [15]
  IC50: 2.42 µM (active)
Beta-lactamase [16]
  IC50: > 59.6 µM (inactive)

## Cc1cc(C)cc(OC(=O)C[S+]([O-])c2ccc(C(F)(F)F)cc2[N+](=O)[O-])c1 (stereo unspecified)
[17]
  AC50: 10.3 µM (active)
[18]
  EC50: > 91.2 µM (inactive)
[3]
  AC50: 4.03 µM (active)
Protein RecA
  EC50: 1.3 µM (active)
[19]
  EC50: > 91.2 µM (inactive)

## COc1ccc(-c2cc(C(=O)Nc3cccc(S(=O)(=O)NCc4ccco4)c3)c3ccccc3n2)cc1OC
[20]
  IC50: 25.3 µM (active)
[21]
  EC50: > 60 µM (not active)
[22]
  IC50: 13.8 µM (active)
[23]
  EC50: 1.64 µM (active)

## C[C@@H]1CN([C@H](C)CO)C(=O)Cc2cc(NS(=O)(=O)c3ccc(Cl)cc3)ccc2O[C@H]1CN(C)S(=O)(=O)c1ccc(Cl)cc1
[24]
  AC50: 16.9 µM (active)

## O=C1C(=Cc2cn(-c3ccccc3)nc2-c2ccc(OCc3ccc(Cl)cc3)cc2)SC(=S)N1CCS(=O)(=O)O
[25]
  IC50: 1.35 µM (active)
[26]
  IC50: 7.21 µM (active)
